Values of other authors in US20170049679A1, “ORAL AND DENTAL HYGIENE AND CLEANING AGENTS FOR REDUCING TOOTH DISCOLORATION” (Henkel AG & Co. KGaA, priority 2014, published 2017).
Where two headings read alike, the source gives them in different places.

## [Cl-].[Cl-].[Zn+2] [Zinc chloride]
25° C.
  Solubility: 4320 g/L

## Zinc hydroxycarbonate
20° C.
  Solubility (in words): Nearly insoluble

## Zinc acetylacetonate
20° C.
  Solubility: 4 g/L
